Results on 13 compounds are retold here after patent publication US20230099031A1, “BIFUNCTIONAL AGENTS FOR PROTEIN RECRUITMENT AND/OR DEGRADATION” (Orionis Biosciences, Inc., priority 2019, published 2023).

What all share (format): cell-based
The target in experiment [1] is T1, IKZF1 (Homo sapiens, UniProt Q13422+Q96SW2).
T1 construct: expressed in transfected cells; host or cells: HEK293T
The experiment is described as follows: Recruitment Assay (MAPPIT-like): IKZF1 recruitment, pSEL-CRBN+pMG1-IKZF1(isoform 7). To be noted: recruitment of IKZF1, protocol of Example 2; read-out: EC50_IKZF1. Here is the method: (§1) In this experimental set-up, cells are transfected with a construct encoding a CRBN-fusion protein and another one encoding a substrate-fusion protein. Test compound activity is assessed with increasing concentrations of test compounds (dose-response studies) to monitor the ability to promote CRBN-ligand-induced protein interaction.
(§2) Full size proteins are fused for each of the target proteins tested, except in the case of IKZF1 where isoform 7 is used, and BRD4, where isoform 3 is applied. For the study, the following construct combinations are used: IKZF1 recruitment: pSEL-CRBN+pMG1-IKZF1(isoform 7); ASS1 recruitment: pSEL-CRBN+pMG1-ASS1; SALL4 recruitment: pSEL-SALL4+pMG1-CRBN; DHFR recruitment: pCLG-DHFR+pMG1-CRBN; ESR1 recruitment: pSEL-CRBN+pMG1-ESR1; BRD4 recruitment: pSEL-CRBN+pMG1-BRD4(isoform 3). Cells are treated with erythropoietin (Epo; where pSEL-type receptor fusions constructs are used) or leptin (in the case pCLG-type receptor fusion constructs are applied) without or with the indicated dose of test compound at 24 hours after transfection. Luciferase activity is measured 24 hours after test compound treatment using the Luciferase Assay System kit (PROMEGA, Madison, Wis.) with an Ensight plate reader (PERKIN ELMER LIFE SCIENCES, Waltham, Mass.). Data points depict fold induction of the average luciferase activity of triplicate samples from Epo or leptin+test compound treated cells versus Epo or leptin only treated cells. Error bars represent standard deviations. Curves are fit using 4-parameter nonlinear regression in […] PRISM software.

For experiment [2], the target named is T2, SALL4 (Homo sapiens, UniProt Q96SW2+Q9UJQ4).
T2 construct: Full size proteins are fused for each of the target proteins tested; expressed in transfected cells; host or cells: HEK293T
Description: Recruitment Assay (MAPPIT-like): SALL4 recruitment, pSEL-SALL4+pMG1-CRBN. To be noted: recruitment of SALL4, protocol of Example 2; read-out: EC50_SALL4. As for the experimental part:
as §1, §2

Experiment [3] addresses T3, CRBN (Homo sapiens, UniProt Q96SW2).
T3 construct: expressed in transfected cells; host or cells: HEK293T
Description: Competition Assay: MAPPIT-like, competition with trimethoprim-lenalidomide hybrid ligand for binding to CRBN in HEK293T cells. The following applies: protocol and reagents of Example 1; read-out: IC50 Competition.

Experiment [4] addresses T4, ASS1 (Homo sapiens, UniProt P00966+Q96SW2).
T4 construct: Full size proteins are fused for each of the target proteins tested; expressed in transfected cells; host or cells: HEK293T
Description: Recruitment Assay (MAPPIT-like): ASS1 recruitment, pSEL-CRBN+pMG1-ASS1. To be noted: recruitment of ASS1, protocol of Example 2; for EC50: read-out: EC50_ASS1. As for the experimental part:
as §1, §2

On to `O=C1CCCC(N2Cc3c(cccc3[N+](=O)[O-])C2=O)C(=O)N1` (centres unmarked) [Compound C29737, 3-(4-nitro-1-oxo-isoindolin-2-yl)azepane-2,7-dione], for which, in experiment [1], the EC50 worked out at 1410 nM.

For the compound `O=C1CCC(N2Cc3cc(NCCNC(=O)Nc4ccccc4)ccc3C2=O)C(=O)N1` (centres unmarked) [Compound C35751, 1-[2-[[2-(2,6-dioxo-3-piperidyl)-1-oxo-isoindolin-5-yl]amino]ethyl]-3-phenyl-urea], the EC50 in experiment [2] was found to be 232 nM; in experiment [4], 1450 nM. The IC50 in experiment [3] was 486 nM.

`CCOC(=O)NCCNc1ccc2c(c1)CN(C1CCC(=O)NC1=O)C2=O` (centres unmarked) [Compound C35754, ethyl N-[2-[[2-(2,6-dioxo-3-piperidyl)-1-oxo-isoindolin-5-yl]amino]ethyl]carbamate]: in experiment [2], the EC50 worked out at 278 nM. In experiment [3], the IC50 turned out to be 737 nM. For the same compound, the “EC50_ASS1 (M)” value in experiment [4] is listed as “>>”.

For the compound `NC(=O)c1cccc(NC(=O)CNc2ccc3c(c2)CN(C2CCC(=O)NC2=O)C3=O)c1` (centres unmarked) [Compound C35811, 3-[[2-[[2-(2,6-dioxo-3-piperidyl)-1-oxo-isoindolin-5-yl]amino]acetyl]amino]benzamide], in experiment [2], the EC50 was found to be 641 nM. For the same compound, the IC50 in experiment [3] is 2440 nM. Further, the “EC50_ASS1 (M)” value in experiment [4] is on record as “>>”.

For `Cc1cccc2c(=O)n(C3CCC(=O)NC3=O)nnc12` (centres unmarked) [Compound C35830, 3-(8-methyl-4-oxo-1,2,3-benzotriazin-3-yl)piperidine-2,6-dione], the EC50 is 588 nM in experiment [2] and 5560 nM in experiment [4]. In addition, in experiment [3], the IC50 was determined as 3460 nM.

Turning to `N#CC1c2ccccc2C(=O)N1C1CCC(=O)NC1=O` (centres unmarked) [Compound C39453, 2-(2,6-dioxo-3-piperidyl)-3-oxo-isoindoline-1-carbonitrile], the values for the EC50 in experiment [2] and in experiment [1] were 875 nM and 17100 nM, respectively. In addition, in experiment [3], the IC50 was 7520 nM.

As to `Nc1cccc2c1CN(C1CC(=O)NC1=O)C2=O` (centres unmarked) [Compound C47930, 3-(4-amino-1-oxo-isoindolin-2-yl)pyrrolidine-2,5-dione], the EC50 in experiment [1] was 784 nM.

In the case of `O=C1CCC(N2Cc3ncccc3C2=O)C(=O)N1` (centres unmarked) [Compound C47959, 3-(5-oxo-7H-pyrrolo[3,4-b]pyridin-6-yl)piperidine-2,6-dione], in experiment [2], the EC50 worked out at 441 nM. Moreover, the IC50 in experiment [3] worked out at 2570 nM. In experiment [4], the “EC50_ASS1 (M)” value is recorded as “>>”.

As for `O=C(O)CNc1ccc2c(c1)CN(C1CCC(=O)NC1=O)C2=O` (centres unmarked) [Compound C47995, 2-[[2-(2,6-dioxo-3-piperidyl)-1-oxo-isoindolin-5-yl]amino]acetic acid], the EC50 in experiment [2] was 518 nM. Also, the IC50 in experiment [3] came out at 3710 nM. Besides, the “EC50_ASS1 (M)” value in experiment [4] is recorded as “>>”.

On to `N#Cc1cccc2c1CN(C1CCC(=O)NC1=O)C2=O` (centres unmarked) [Compound C48003, 2-(2,6-dioxo-3-piperidyl)-1-oxo-isoindoline-4-carbonitrile], for which, in experiment [2], the EC50 turned out to be 581 nM. The IC50 in experiment [3] turned out to be 622 nM. Further, the “EC50_ASS1 (M)” value in experiment [4] is on record as “>>”.

Consider `O=C1CCC(N2Cc3cc4c(cc3C2=O)OCO4)C(=O)N1` (centres unmarked) [Compound C68126, 3-(7-oxo-5H-[1,3]dioxolo[4,5-f]isoindol-6-yl)piperidine-2,6-dione], for which the EC50 in experiment [2] turned out to be 319 nM. The IC50 in experiment [3] turned out to be 564 nM. Moreover, the “EC50_ASS1 (M)” value in experiment [4] was “>>”.

On to `N#Cc1ccc(Nc2ccc3c(c2)CN(C2CCC(=O)NC2=O)C3=O)nn1` (centres unmarked) [Compound C80378, 6-[[2-(2,6-dioxo-3-piperidyl)-1-oxo-isoindolin-5-yl]amino]pyridazine-3-carbonitrile], for which the EC50 in experiment [2] amounted to 387 nM; in experiment [4], 9420 nM. Further, the IC50 in experiment [3] came to 2210 nM.

Turning to `O=C1CCC(N2C(=O)c3ccccc3C2O)C(=O)N1` (centres unmarked) [Compound C89940, 3-(1-hydroxy-3-oxo-isoindolin-2-yl)piperidine-2,6-dione], the EC50 in experiment [2] is 438 nM. Further, the IC50 in experiment [3] worked out at 3290 nM. Also, the “EC50_ASS1 (M)” value in experiment [4] is “>>”.
